In test [1] the test system is myocardial infarction model immunodeficient mouse (NRG mouse). As to the kind of experiment: Engraftment efficiency of transplanted cardiomyocytes by in vivo optical imaging (IVIS). The settings on record: cardiomyocytes treated with 1 μM for 48 hours from day 18, intramyocardial injection; compared to DMSO treatment group; FIG. 4. The protocol:
Cardiomyocytes were induced to differentiate from iPS cells (Funakoshi, S. et al. Sci Rep 8, 19111 (2016)) derived from a healthy individual, which constantly express luciferase, by the method described in this document. The cardiomyocytes were treated with AM80 (1 μM) for 48 hours from day 18 after differentiation induction. Cardiomyocytes were extracted by flow cytometry, and then transplanted (1000,000 cells) into a myocardial infarction model immunodeficient mouse (NRG mouse with the left anterior descending coronary artery ligated) by intramyocardial injection.

Test [2] concerns human iPS cell-derived cardiomyocytes. As to the kind of experiment: EdU assay cell proliferation analysis. Conditions: 1 μM for 48 hours from day 18; compared to control group (DMSO-treated group); FIG. 3. Format: cell-based. The protocol: Further, human iPS cell-derived cardiomyocytes on day 18 after differentiation induction were treated with AM80 (1 μM) for 48 hours, and cell proliferation analysis was performed using EdU assay. […] For the EdU assay, Click-it EdU Pacific Blue flow cytometry assay kit, catalog number C10418 (Invitrogen) was used.

The test system of test [3] is cardiomyocytes on day 18 of differentiation induction. Put plainly: Flow cytometry of Fucci green fluorescent cardiomyocytes after AM80 administration. The settings on record: 1 μM, flow cytometry 48 hours later; vs Control (DMSO); FIG. 1 and FIG. 2. Format: cell-based, human. The protocol: 1 μM AM80 was administered to cardiomyocytes on day 18 of differentiation induction and then analysis was conducted by flow cytometry 48 hours later.
For orientation: Flow cytometry measures light scatter and fluorescence of single cells or particles in a stream.

In test [4] the test system is iPS cell-derived cardiomyocytes. As to the kind of experiment: Screening for cardiomyocyte proliferation agent based on cell cycle activation (Fucci green fluorescence and cell number). Set-up: species or system human. The settings on record: compounds administered on day 22 after differentiation induction, evaluated on day 25; 384-well plate, 2500 cells per well. An excerpt:
The Fucci gene (Cell. 2008 Feb. 8; 132 (3): 487-98.) was constitutively expressed under the CAG promoter using the PiggyBac transposon vector system (System Biosciences) in a healthy human-derived iPS cell line.
The Fucci gene-introduced iPS cell line was induced to differentiate into cardiomyocytes by the embryoid body method described in Funakoshi, S. et al. Sci Rep 8, 19111 […], cardiomyocytes were extracted using a cell sorter on day 20 after induction, and then seeded into a 384-well plate at 2500 cells per well.
On day 22 after differentiation induction, about 4000 types of compounds were administered, and on day 25, the reactivity of the proliferative capacity of iPS cell-derived cardiomyocytes to the drugs was evaluated based on the intensity of Fucci's green fluorescence and the number of cells.
The Fucci reporter emits orange fluorescence in the G1/G0 phase and green fluorescence in the S/G2/M phase of the cell cycle. Since the cell cycle of undifferentiated human iPS cells is activated, most cells emit green fluorescence. However, when these iPS cells are differentiated into cardiomyocytes, the cell cycle usually stops and most cells turn red.

`CC1(C)CCC(C)(C)c2cc(NC(=O)c3ccc(C(=O)O)cc3)ccc21` [AM80]: the “engraftment efficiency of transplanted cardiomyocytes” value in test [1] is “significant improvement”. Besides, the “cell proliferation activity (EdU assay)” value in test [2] is listed as “significant increase”. In test [3], the “green fluorescent cells (activation of cell cycle)” value is recorded as “significant increase”. Further, the “proliferation and cell division of iPS cell-derived cardiomyocytes (Fucci's green fluorescence intensity and number of cells)” value (“proliferation and cell division” for short) in test [4] is “promote the proliferation and cell division”.
Turning to `O=C(O)c1ccc2cc(-c3ccc(O)c(C45CC6CC(CC(C6)C4)C5)c3)ccc2c1` [CD437], the “proliferation and cell division” value in test [4] is “promote the proliferation and cell division”.
Same read-out and setting: the result for `Cc1ccccc1C(C(=O)NC1CCCCC1)N(C(=O)Cn1ccnc1C)c1cccc(F)c1` (centres unmarked) [AGI5198, N-[2-(cyclohexylamino)-1-(2-methylphenyl)-2-oxoethyl]-N-(3-fluorophenyl)-2-methyl-1H-imidazole-1-acetamide] reads “promote the proliferation and cell division”; that for `O=C1NC(=O)C(=Cc2ccc(-c3ccc(F)cc3)o2)S1` (stereo in doubt) [CAY10505], “promote the proliferation and cell division”; that for `CC1=C(/C=C/C(C)=C/C=C/C(C)=C/C(=O)O)C(C)(C)CCC1` [All trans retinoic acid], “promote the proliferation and cell division”.
Same read-out and setting: in the case of `CC1(C)CCC(C)(C)c2cc(C(=O)Nc3ccc(C(=O)O)cc3)ccc21` [AM580] it was “promote the proliferation and cell division”.
As for `CC(C)(C)c1cc(C(=O)/C=C/c2ccc(C(=O)O)cc2)cc(C(C)(C)C)c1` [CH55], in test [4], the “proliferation and cell division” value is “promote the proliferation and cell division”.
The same measure, in the same setting: in the case of `CC(C)(C)NS(=O)(=O)c1cncc(-c2cc(F)c3nc(N)nn3c2)c1` [CZC24832] it was “promote the proliferation and cell division”.
